The results in this text go back to ChEMBL document CHEMBL1146156, “Fish venom (Pterios volitans) peptide reduces tumor burden and ameliorates oxidative stress in Ehrlich's ascites carcinoma xenografted mice” (2006).

Common to all, as to format: functional
The subject of assay [1] is Mus musculus. The experiment in a line: Increase in mean survival time of Ehrlich's ascites carcinoma xenografted Swiss Albino mouse at 20 mg/kg.
In assay [2] the test system is Mus musculus. Briefly: Increase in liver GST activity of Ehrlich's ascites carcinoma xenografted Swiss Albino mouse at 20 mg/kg.
Assay [3] concerns Mus musculus. Briefly: Effect on GSH content in liver of Ehrlich's ascites carcinoma xenografted Swiss Albino mouse at 20 mg/kg measured per 100 g tissue.
In assay [4] the test system is Mus musculus. Briefly: Increase in liver catalase activity of Ehrlich's ascites carcinoma xenografted Swiss Albino mouse at 20 mg/kg.
Assay [5] has as its system Mus musculus. Briefly: Decrease in body weight of Ehrlich's ascites carcinoma xenografted Swiss albino mouse at 20 mg/kg.
Assay [6] relates to Mus musculus. The experiment in a line: Effect on TBARS levels in liver of Ehrlich's ascites carcinoma xenografted Swiss Albino mouse at 20 mg/kg measured per 100 g tissue.
The subject of assay [7] is Mus musculus. The experiment in a line: Increase in liver SOD activity of Ehrlich's ascites carcinoma xenografted Swiss Albino mouse at 20 mg/kg.
Assay [8] concerns Mus musculus. Briefly: Effect on hydroperoxide levels in liver of Ehrlich's ascites carcinoma xenografted Swiss Albino mouse at 20 mg/kg measured per 100 g tissue.
The subject of assay [9] is Mus musculus. Briefly: Increase in life span of Ehrlich's ascites carcinoma xenografted Swiss Albino mouse at 20 mg/kg.
For assay [10], the system named is Mus musculus. Briefly: Increase in liver glutathione peroxidase activity of Ehrlich's ascites carcinoma xenografted Swiss Albino mouse at 20 mg/kg.

In the case of `O=c1[nH]cc(F)c(=O)[nH]1` [FLUOROURACIL], the MST in the assay with Mus musculus [1] was found to be 39.5 days. In addition, the Activity in the assay on Mus musculus [2] was found to be 16.2 U/mg; in the assay on Mus musculus [3], 3.65 mmol; with Mus musculus [4], 20.4 U/mg; with Mus musculus [5], 25.2 g; with Mus musculus [6], 0.99 mmol; in the assay on Mus musculus [7] it was 3.96 U/mg. Besides, the Activity with Mus musculus [8] is given as 0.85 mmol; with Mus musculus [9] it was 119.49%; in the assay on Mus musculus [10] it was 6.97 U/mg.
